Results as given in article PMC11085872, “Structure-Based Design of Novel Thiazolone[3,2-a]pyrimidine Derivatives as Potent RNase H Inhibitors for HIV Therapy” (Molecules, 2024).

Assays:
[1] = molecular target: T1, HIV-1 RT-associated RNase H (Human immunodeficiency virus type 1 group M subtype B, UniProt P03366); assay: RNase H polymerase-independent cleavage assay; format: biochemical; settings: for IC50: IC50, compound concentration required to reduce HIV-1 RT-associated RNase H activity by 50%, recombinant HIV-1 wt RT, hybrid RNA/DNA substrate, 37 °C, 1 hour
T1 construct: His-tagged p66/p51 HIV-1 RT group M subtype B; His tag; made in house; host or cells: Escherichia coli strain M15 (plasmid p6HRT-prot)
Experimental: The Ar^1 and Ar^2 aromatic segments of the molecule also approach the protein surface, through hydrophobic interactions. These findings provide important information for further structural optimization. All these newly designed thiazolone[3,2-a]pyrimidine derivatives were evaluated for their inhibitory activity against HIV RT-associated RNase H, using the diketo acid RDS1643 as positive control. […] The decrease in activity observed in compounds containing a sulfonic acid group might be attributed to the excessively strong acidity of the sulfonic acid group, which could protonate the diazo group within the molecule. […] When Ar^2 was changed from a phenyl group to a naphthyl group, the activity of compound 10f gained a great improvement over that of compound 10k. […] And when a negatively charged polar group was present at the 2-position of Ar^2, the inhibitory activity is enhanced. […]
3. Biology Experimental section
3.1 Expression and purification of recombinant HIV-1 RTs.
His-tagged p66/p51 HIV-1 RT group M subtype B coded in a p6HRT-prot plasmid was expressed in the Escherichia coli strain M15.1 Heterodimeric RTs were expressed essentially and purified as described.2 E. coli cells harboring the expression vector were cultured until reaching an optical density at 600 nm of 0.7. Induction of protein expression was achieved by treating the cells with 1.7 mM isopropyl β-D-1-thiogalactopyranoside (IPTG) for a duration of 4 hours. The subsequent purification of the protein was performed using a BioLogic LP system (BioRad) employing a combination of immobilized metal affinity chromatography and ion exchange […]
To initiate the purification process, the cell pellets were resuspended in lysis buffer at a ratio of 1:2 (cell pellet volume: lysis buffer volume). The lysis buffer used consisted of 50 mM sodium phosphate buffer with a pH of 7.8, supplemented with 0.5 mg/ml lysozyme. The resuspended cells were incubated on ice for 20 minutes. Following this, NaCl was added to achieve a final concentration of 0.3 M. The cells were then subjected to sonication, with four cycles of 60 seconds each, alternating between one second on and one second off. Subsequently, the cell lysate was centrifuged at 30, 000×g for 1 […]
The supernatant obtained from the centrifugation step was loaded onto a Ni2+-NTA-Sepharose column that had been pre-equilibrated with a loading buffer consisting of 50 mM sodium phosphate buffer (pH 7.8), 0.3 M NaCl, 10% glycerol, and 10 mM imidazole. The column was washed with a buffer containing 50 mM sodium phosphate buffer (pH 6.0), 0.3 M NaCl, 10% glycerol, and 80 mM imidazole. The target protein, RT, was eluted using an imidazole gradient ranging from 0.08 M to 0.5 M in the wash buffer. Fractions containing the enzyme were collected and combined, and then diluted 1:1 with 50 mM sodium phosphate buffer (pH 7.0) containing 10% glycerol. The diluted protein sample was loaded onto a Hi-trap heparin HP column that had been pre-equilibrated with 10 column volumes of a loading buffer consisting of 50 mM sodium phosphate buffer (pH 7.0), 10% glycerol, and 150 mM NaCl. The column was washed with the loading buffer, and the RT enzyme was eluted using Elute Buffer 2, which
(1 picture or pasted object on this page, not shown here) […]
comprised 50 mM sodium phosphate buffer (pH 7.0), 10% glycerol, and 1 M NaCl.
The eluted fractions containing the purified protein were collected, and the protein was subsequently dialyzed and stored in a buffer composed of 50 mM Tris-HCl (pH 7.0), 25 mM NaCl, 1 mM EDTA, and 50% glycerol. The catalytic activities of the purified protein samples were determined, and aliquots were stored at -80 °C for further use.
3.2 RNase H Polymerase-Independent Cleavage Assay
The HIV-1 RT-associated RNase H activity was measured as described.3 In summary, the reaction was performed in a black 96-well plate with a total volume of 100 μL. The reaction mix consisted of 50 mM Tris HCl (pH 7.8), 6 mM MgCl2, 1 mM dithiothreitol […]

Compound | IC50 [1] [µM] | melting point [°C] | remaining activity at 100 µM ([1]; read-out: Percentage of the control activity measured at the indicated compound concentration) [%]
COC(=O)C1=C(C)N=C2SC(=NNc3ccccc3C(=O)OC)C(=O)N2C1c1ccc(OC)c(OC)c1OC (stereo not shown) [Compound 11h, Methyl 2-(2-(2-(methoxycarbonyl)phenyl)hydrazineylidene)-7-methyl-3-oxo-5-(2,3,4-trimethoxyphenyl)-2,3-dihydro-5H-thiazolo[3,2-a]pyrimidine-6-carboxylate] | 10 ± 0.95 | 200 to 202 | –
COC(=O)C1=C(C)N=C2SC(=NNc3ccccc3C(C)=O)C(=O)N2C1c1ccc(OC)c(OC)c1OC (stereo not shown) [Compound 11i, Methyl 2-(2-(2-acetylphenyl)hydrazineylidene)-7-methyl-3-oxo-5-(2,3,4-trimethoxyphenyl)-2,3-dihydro-5H-thiazolo[3,2-a]pyrimidine-6-carboxylate] | > 100 | 205 to 208 | 100
COC(=O)C1=C(C)N=C2SC(=NNc3cccc(C(=O)OC)c3)C(=O)N2C1c1ccc(OC)c(OC)c1OC (stereo not shown) [Compound 11j, Methyl 2-(2-(3-(methoxycarbonyl)phenyl)hydrazineylidene)-7-methyl-3-oxo-5-(2,3,4-trimethoxyphenyl)-2,3-dihydro-5H-thiazolo[3,2-a]pyrimidine-6-carboxylate] | 42.1 ± 9.78 | 213 to 215 | –
COC(=O)C1=C(C)N=C2SC(=NNc3cccc(C(C)=O)c3)C(=O)N2C1c1ccc(OC)c(OC)c1OC (stereo not shown) [Compound 11k, Methyl 2-(2-(3-acetylphenyl)hydrazineylidene)-7-methyl-3-oxo-5-(2,3,4-trimethoxyphenyl)-2,3-dihydro-5H-thiazolo[3,2-a]pyrimidine-6-carboxylate] | 22 ± 0.36 | 216 to 219 | –
COC(=O)C1=C(C)N=C2SC(=NNc3ccccc3C(C)=O)C(=O)N2C1c1ccc(OC)cc1 (stereo not shown) [Compound 12a, Methyl 2-(2-(2-acetylphenyl)hydrazineylidene)-5-(4-methoxyphenyl)-7-methyl-3-oxo-2,3-dihydro-5H-thiazolo[3,2-a]pyrimidine-6-carboxylate] | 3.98 ± 0.3 | 199 to 201 | –
COC(=O)C1=C(C)N=C2SC(=NNc3ccccc3C(=O)OC)C(=O)N2C1c1ccc(OC)cc1 (stereo not shown) [Compound 12b, Methyl 2-(2-(2-(methoxycarbonyl)phenyl)hydrazineylidene)-5-(4-methoxyphenyl)-7-methyl-3-oxo-2,3-dihydro-5H-thiazolo[3,2-a]pyrimidine-6-carboxylate] | 2.97 ± 0.88 | 219 to 221 | –
COC(=O)C1=C(C)N=C2SC(=NNc3cccc(C(=O)OC)c3)C(=O)N2C1c1ccc(OC)cc1 (stereo not shown) [Compound 12c, Methyl 2-(2-(3-(methoxycarbonyl)phenyl)hydrazineylidene)-5-(4-methoxyphenyl)-7-methyl-3-oxo-2,3-dihydro-5H-thiazolo[3,2-a]pyrimidine-6-carboxylate] | 4.71 ± 0.86 | 209 to 211 | –
COC(=O)C1=C(C)N=C2SC(=NNc3cc(OC)c(OC)c(OC)c3)C(=O)N2C1c1ccc(OC)cc1 (stereo not shown) [Compound 12e, Methyl 5-(4-methoxyphenyl)-7-methyl-3-oxo-2-(2-(3,4,5-trimethoxyphenyl)hydrazineylidene)-2,3-dihydro-5H-thiazolo[3,2-a]pyrimidine-6-carboxylate] | 8.99 ± 0.27 | 204 to 206 | –
COC(=O)C1=C(C)N=C2S/C(=N\Nc3ccc4ccccc4c3S(=O)(=O)O)C(=O)N2C1c1ccc(OC)cc1 (stereo not shown) [Compound 12f] | 3.28 | 271 to 273 | –
